What was measured:
[1] = Kinematic viscosity; assay type: physicochemical; settings: for Viscosity @ 25° C.: kinematic viscosity; for Low temperature kinematic viscosity (in words): compared with fluids close in boiling point, FIG. 1 and FIG. 2
Source text: (§1) The useful liquid range (between the pour point and the normal boiling point) of the fluorinated oxiranes (Examples 1-3) are similar to perfluorocarbons (Comparative 1), perfluoroketones (Comparative 2), and perfluoroethers (Comparative 3). The specific heat capacity of the Comparatives is also very similar to the exemplary fluorinated oxiranes.
The viscosity impacts the heat transfer performance and liquid pumping power.

[2] = Pour point (thermophysical properties); assay type: physicochemical
Source text: as §1

[3] = Normal boiling point (thermophysical properties); assay type: physicochemical
Source text: as §1

[4] = Specific heat capacity; assay type: physicochemical
Source text: as §1

[5] = Vapor pressure; assay type: physicochemical
Source text: as §1

[6] = Atmospheric lifetime from kinetic studies for reaction with hydroxyl radical; assay type: physicochemical; settings: based on kinetic studies for reaction with hydroxyl radical
Source text: The atmospheric lifetimes of C6F14 and CF3OCF(CF3)CF2OCF2OCF3 are reported as 3200 years and 800 years, respectively (see Climate Change 2007: The Physical Science Basis. Contribution of Working Group I to the Fourth Assessment Report of the Intergovernmental Panel on Climate Change, Solomon, S., D. Qin, M. Manning, Z. Chen, M. Marquis, K. B. Averyt, M. Tignor and H. L. Miller (eds.), Cambridge University Press, Cambridge, United Kingdom and New York, N.Y., USA, 996 pp, 2007.). […] Based on kinetic studies for reaction with hydroxyl radical, 2,3-difluoro-2-(1,2,2,2-tetrafluoro-l-trifluoromethyl-ethyl)-3-trifluoromethyl-oxirane has an estimated atmospheric lifetime of 20 years.

[7] = reported in Climate Change 2007, IPCC Fourth Assessment Report; cited from earlier work
[8] = Dielectric breakdown strength according to ASTM D877; assay type: physicochemical; settings: ASTM D877, model LD60 liquid dielectric test set
Procedure: In applications where the direct contact of energized, electronic components by the heat transfer fluid occurs, whether intended or otherwise, the need exists for fluids with dielectric breakdown strengths greater than around 8 megavolts/meter (MV/m), measured according to ASTM D877. Such high dielectric breakdown strengths help to avoid damage to the electronic components through short circuits.
The dielectric breakdown strengths of Example 1 and 3 were determined according to ASTM D877, using a model LD60 liquid dielectric test set available from Phenix Technologies, Accident, Md. The breakdown strengths for example 1 and 3 were 15.5 MV/m and 17.3 MV/m respectively.

[9] = Hydrolytic stability: fluoride ion in water phase after aging with deionized water; assay type: physicochemical; settings: for F concentration after 30 min at 25° C. / F concentration after 4 hours at 50° C.: 5 g material + 5 g deionized water; for F concentration after 30 min at 25° C.: agitated 30 min at room temperature (~25° C.); for F concentration after 4 hours at 50° C.: monel pressure vessel
Procedure: Example 1 and Comparatives 1 and 2 were tested for hydrolytic stability at room temperature (˜25° C.) and 50° C. Room temperature testing was conducted by placing 5 grams of test material along with 5 grams of deionized water in new polypropylene, centrifuge tubes which were then sealed and agitated for 30 minutes using a shaker set at low speed. Elevated temperature testing was carried out by placing 5 grams of test material along with 5 grams deionized water in a clean monel pressure vessel which was sealed and placed in a convection oven set at 50° C. for 4 hours. After aging, the fluoride concentrations were determined by mixing 0.5 ml of the water phase from each sample with 0.5 ml of TISAB II buffer solution and measuring fluoride ion concentration using a calibrated fluoride selective electrode connected to a pH/millivolt meter (both the electrode and buffer solutions are available from Thermo Scientific Orion, Beverly, Mass.). The hydrolytic stability of Example 1, Comparative Example 1 and Comparative Example 2 were determined and are reported as parts per million by weight (ppmw) of fluorine in Table III below.

Molecule	Viscosity @ 25° C. [1]	Pour Point [2]	Normal Boiling Point [3]	Specific Heat Capacity [4]	Vapor Pressure @ 25° C. [5]	Estimated atmospheric lifetime [6]	Atmospheric lifetime [7]	Low temperature kinematic viscosity (in words) [1]	Dielectric breakdown strength [8]	F concentration after 30 min at 25° C. [9]	F concentration after 4 hours at 50° C. [9]	Hydrolytic stability (comparison in words) ([9]; room temperature and 50° C.)
CCOC(F)(C(F)(F)C(F)(F)C(F)(F)F)C(F)(C(F)(F)F)C(F)(F)F (stereo not drawn) [Comparative 3, 2-trifluoromethyl-3-ethoxydodecafluorohexane]	7.7 ×10^−7 m^2/s	−100 °C	128 °C	1128 J/kg-K	2.1 kPa							
FC(F)(F)C(F)(F)C(F)(F)N(C(F)(F)C(F)(F)C(F)(F)F)C(F)(F)C(F)(F)C(F)(F)F [Comparative 4, Perfluorotripropylamine]	7.5 ×10^−7 m^2/s	−50 °C	130 °C	1100 J/kg-K	1.4 kPa							
FC(F)(F)C(F)(F)C1(F)OC1(C(F)(F)F)C(F)(F)F (stereo not drawn) [2-fluoro-2-pentafluoroethyl-3,3-bis-trifluoromethyl-oxirane]						77 years						
FC(F)(F)OC(F)(F)OC(F)(F)C(F)(OC(F)(F)F)C(F)(F)F (stereo not drawn) [CF3OCF(CF3)CF2OCF2OCF3]							800 years					
FC1(F)C(F)(F)C(F)(F)C2(F)OC2(F)C1(F)F (stereo not drawn) [Example 2, 1,2,2,3,3,4,4,5,5,6-decafluoro-7-oxa-bicyclo [4.1.0]heptane]	6.6 ×10^−7 m^2/s	−88 °C	56.1 °C	1083 J/kg-K	30.3 kPa			better low temperature viscosity				
HFP Trimer-Oxirane [Example 3]	12.5 ×10^−7 m^2/s	−103 °C	121.9 °C	869 J/kg-K	1.6 kPa			acceptable viscosity for heat transfer applications as low as −40 °C	17.3 MV/m			
O=C(C(F)(F)C(F)(F)F)C(F)(C(F)(F)F)C(F)(F)F [Comparative 2, Dodecafluoro-2-methylpentan-3-one]	4.0 ×10^−7 m^2/s	−108 °C	49 °C	1103 J/kg-K	40.4 kPa					1.13 ppmw	5.89 ppmw	
FC(F)(F)C1(F)OC1(F)C(F)(C(F)(F)F)C(F)(F)F (stereo not drawn) [Example 1, 2,3-difluoro-2-(1,2,2,2-tetrafluoro-1-trifluoromethyl-ethyl)-3-trifluoromethyl-oxirane]	3.7 ×10^−7 m^2/s	−145 °C	51.7 °C	1145 J/kg-K	36.0 kPa	20 years		better low temperature viscosity	15.5 MV/m	0.14 ppmw	0.13 ppmw	comparable to that of comparative 1 and better than comparative 2
FC(F)(F)C(F)(F)C(F)(F)C(F)(F)C(F)(F)C(F)(F)F [Comparative 1, Perfluorohexane]	3.8 ×10^−7 m^2/s	−90 °C	56 °C	1100 J/kg-K	30.0 kPa		3200 years			0.09 ppmw	0.23 ppmw	

Reference: patent US20140009887A1, “FLUORINATED OXIRANES AS HEAT TRANSFER FLUIDS” (3M INNOVATIVE PROPERTIES COMPANY, priority 2011, published 2014)
